Source: PubChem BioAssay (NCI)
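Following 48 hours of exposure in 96-well plates, responses at five concentrations were used to interpolate endpoints linearly. GI50: concentration for 50% inhibition of growth. The concentration for full growth arrest is given as TGI.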

What was measured:
Experiment in all cases: inhibition of tumour cell growth, NCI panel, 48 h
[1] = system: SNB-19 CNS
[2] = system: IGROV1 ovarian
[3] = system: MDA-MB-231 breast
[4] = system: SK-MEL-28 melanoma
[5] = system: COLO 205 colon
[6] = system: OVCAR-4 ovarian
[7] = system: T-47D breast
[8] = system: 786-0 renal
[9] = system: UACC-62 melanoma
[10] = system: OVCAR-5 ovarian
[11] = system: SK-MEL-5 melanoma
[12] = system: EKVX NSCLC
[13] = system: SR leukemia
[14] = system: MDA-MB-435
[15] = system: MDA-N
[16] = system: PC-3 prostate
[17] = system: CAKI-1 renal
[18] = system: HOP-92 NSCLC
[19] = system: SF-539 CNS
[20] = system: ACHN renal
[21] = system: NCI-H23 lung
[22] = system: MCF7 breast
[23] = system: KM12 colon
[24] = system: LOX IMVI melanoma
[25] = system: MALME-3M melanoma
[26] = system: OVCAR-3 ovarian
[27] = system: SK-OV-3 ovarian
[28] = system: SF-295 CNS
[29] = system: M14 melanoma
[30] = system: CCRF-CEM leukemia
[31] = system: HS 578T breast
[32] = system: K-562 leukemia
[33] = system: TK-10 renal
[34] = system: SNB-75 CNS
[35] = system: HOP-62 NSCLC
[36] = system: HL-60(TB) leukemia
[37] = system: HCT-116 colon
[38] = system: SF-268 CNS
[39] = system: DU-145 prostate
[40] = system: NCI-H522 lung
[41] = system: SN12C renal
[42] = system: NCI/ADR-RES ovarian
[43] = system: UACC-257 melanoma
[44] = system: UO-31 renal
[45] = system: OVCAR-8 ovarian
[46] = system: HCT-15 colon
[47] = system: A549 NSCLC
[48] = system: NCI-H460 lung
[49] = system: A498 renal
[50] = system: HT29 colon
[51] = system: RPMI-8226 leukemia
[52] = system: RXF 393 renal
[53] = system: HCC-2998 colon
[54] = system: SW-620 colon
[55] = system: U251 CNS
[56] = system: MOLT-4 leukemia
[57] = system: SK-MEL-2 melanoma
[58] = system: NCI-H226 lung
[59] = system: BT-549 breast

With O=C(C=P(c1ccccc1)(c1ccccc1)c1ccccc1)c1ccccc1-c1ccccc1C(=O)C=P(c1ccccc1)(c1ccccc1)c1ccccc1 the TGI [1] was 1580 nM, the TGI [2] was 1360 nM and the TGI [3] was 158 nM. The TGI [4] was 2030 nM, the TGI [5] was 22.2 nM and the TGI [6] was 1630 nM. It also gave a TGI [7] of 2080 nM, a TGI [8] of 1250 nM and a TGI [9] of 1330 nM. It also gave a TGI [10] of 585 nM, a TGI [11] of 26.3 nM and a TGI [12] of 910 nM. For the same compound, the TGI [13] was 66.7 nM, the TGI [14] was 1110 nM and the TGI [15] was 1100 nM. For the same compound, the TGI [16] was 1230 nM, the TGI [17] was 1100 nM and the TGI [18] was 54.4 nM. For the same compound, the TGI [19] was 384 nM, the TGI [20] was 1120 nM and the TGI [21] was 89.9 nM. It also gave a TGI [22] of 39.5 nM, a TGI [23] of 20 nM and a TGI [24] of 71.6 nM. For the same compound, the TGI [25] was under 20.8 nM, the TGI [26] was under 12 nM and the TGI [27] was 366 nM. For the same compound, the TGI [28] was 49.6 nM, the TGI [29] was 1420 nM and the TGI [30] was 843 nM. The TGI [31] was 317 nM, the TGI [32] was 90.5 nM and the TGI [33] was 182 nM. For the same compound, the TGI [34] was 115 nM, the TGI [35] was 507 nM and the TGI [36] was under 19.5 nM. It also gave a TGI [37] of 259 nM, a TGI [38] of 1610 nM and a TGI [39] of 1280 nM. It also gave a TGI [40] of 1780 nM.
In the case of C1CCC(CC2CCC(NC3=NCCO3)CC2)CC1 (configuration not stated), the TGI [1] is reported as 34300 nM, the TGI [41] is reported as 42500 nM and the TGI [42] is reported as 37300 nM. For the same compound, the TGI [2] was 37100 nM, the TGI [3] was 37500 nM and the TGI [43] was 30100 nM. The TGI [44] was 35900 nM, the TGI [4] was 33200 nM and the TGI [5] was 28200 nM. For the same compound, the TGI [6] was 48200 nM, the TGI [7] was 54300 nM and the TGI [8] was 29200 nM. It also gave a TGI [9] of 31100 nM, a TGI [45] of 30900 nM and a TGI [10] of 53600 nM. For the same compound, the TGI [11] was 33700 nM, the TGI [12] was 54400 nM and the TGI [46] was 30100 nM. For the same compound, the TGI [13] was 52600 nM, the TGI [14] was 32300 nM and the TGI [15] was 35900 nM. The TGI [47] was over 100000 nM, the TGI [16] was 31700 nM and the TGI [17] was 50700 nM. It also gave a TGI [19] of 31100 nM, a TGI [20] of 35500 nM and a TGI [48] of 37100 nM. For the same compound, the TGI [21] was 36500 nM, the TGI [22] was 32100 nM and the TGI [23] was 32700 nM. For the same compound, the TGI [49] was 53300 nM, the TGI [50] was 17100 nM and the TGI [24] was 30900 nM. For the same compound, the TGI [51] was 55900 nM, the TGI [52] was 36600 nM and the TGI [53] was 37100 nM. For the same compound, the TGI [54] was 41700 nM, the TGI [55] was 33300 nM and the TGI [25] was 29700 nM. For the same compound, the TGI [26] was 30600 nM, the TGI [27] was 38400 nM and the TGI [28] was 36000 nM. The TGI [29] was 33800 nM, the TGI [30] was 61900 nM and the TGI [31] was 40600 nM. It also gave a TGI [32] of 32900 nM, a TGI [33] of 28600 nM and a TGI [34] of 36600 nM. The TGI [35] was 39400 nM, the TGI [36] was 34000 nM and the TGI [56] was 48100 nM. It also gave a TGI [57] of 32400 nM, a TGI [37] of 30600 nM and a TGI [58] of 34300 nM. It also gave a TGI [38] of 62100 nM, a TGI [39] of 94900 nM and a TGI [40] of 41900 nM.
With CC1CCc2c(C(=O)Nc3ncc(Cc4cccc([N+](=O)[O-])c4)s3)csc2C1 (configuration not stated) the GI50 [1] was 678 nM, the TGI [1] was over 100000 nM and the GI50 [41] was 1490 nM. The TGI [41] was over 100000 nM, the GI50 [42] was 460 nM and the TGI [42] was over 100000 nM. For the same compound, the GI50 [2] was 753 nM, the TGI [2] was over 100000 nM and the GI50 [3] was 1030 nM. The TGI [3] was over 100000 nM, the GI50 [43] was 3770 nM and the TGI [43] was over 100000 nM. It also gave a GI50 [44] of 815 nM, a TGI [44] of over 100000 nM and a GI50 [4] of 3660 nM. The TGI [4] was over 100000 nM, the GI50 [5] was 370 nM and the TGI [5] was 19600 nM. The GI50 [6] was 1640 nM, the TGI [6] was over 100000 nM and the GI50 [7] was 653 nM. The TGI [7] was over 100000 nM, the GI50 [8] was 1180 nM and the TGI [8] was over 100000 nM. For the same compound, the GI50 [9] was 373 nM, the TGI [9] was over 100000 nM and the GI50 [45] was 1420 nM. For the same compound, the TGI [45] was over 100000 nM, the GI50 [10] was 1560 nM and the TGI [10] was over 100000 nM. The GI50 [11] was 476 nM, the TGI [11] was over 100000 nM and the GI50 [12] was 1110 nM. For the same compound, the TGI [12] was over 100000 nM, the GI50 [46] was 389 nM and the TGI [46] was over 100000 nM. For the same compound, the GI50 [13] was 176 nM, the TGI [13] was over 100000 nM and the GI50 [14] was 133 nM. The TGI [14] was 450 nM, the GI50 [47] was 944 nM and the TGI [47] was over 100000 nM. The GI50 [16] was 618 nM, the TGI [16] was over 100000 nM and the GI50 [17] was 431 nM. The TGI [17] was over 100000 nM, the GI50 [18] was 2680 nM and the TGI [18] was over 100000 nM. The GI50 [19] was 548 nM, the TGI [19] was 1930 nM and the GI50 [20] was 937 nM. For the same compound, the TGI [20] was over 100000 nM, the GI50 [48] was 491 nM and the TGI [48] was over 100000 nM. The GI50 [21] was 1830 nM, the TGI [21] was over 100000 nM and the GI50 [59] was 1250 nM. It also gave a TGI [59] of over 100000 nM, a GI50 [22] of 268 nM and a TGI [22] of over 100000 nM. For the same compound, the GI50 [23] was 442 nM, the TGI [23] was over 100000 nM and the GI50 [49] was 267 nM. For the same compound, the TGI [49] was 864 nM, the GI50 [50] was 380 nM and the TGI [50] was over 100000 nM. It also gave a GI50 [24] of 480 nM, a TGI [24] of over 100000 nM and a GI50 [51] of 1140 nM. For the same compound, the TGI [51] was over 100000 nM, the GI50 [52] was 938 nM and the TGI [52] was 4020 nM. The GI50 [53] was 1510 nM, the TGI [53] was over 100000 nM and the GI50 [54] was 414 nM. It also gave a TGI [54] of over 100000 nM, a GI50 [55] of 523 nM and a TGI [55] of over 100000 nM. For the same compound, the GI50 [25] was 1000 nM, the TGI [25] was over 100000 nM and the GI50 [26] was 391 nM. It also gave a TGI [26] of 2250 nM, a GI50 [27] of 436 nM and a TGI [27] of over 100000 nM. It also gave a GI50 [28] of 400 nM, a TGI [28] of over 100000 nM and a GI50 [29] of 400 nM. It also gave a TGI [29] of over 100000 nM, a GI50 [30] of 612 nM and a TGI [30] of over 100000 nM. For the same compound, the GI50 [31] was 720 nM, the TGI [31] was over 26200 nM and the GI50 [32] was 213 nM. The TGI [32] was over 100000 nM, the GI50 [33] was 5040 nM and the TGI [33] was over 100000 nM. It also gave a GI50 [34] of 369 nM, a TGI [34] of 1660 nM and a GI50 [35] of 795 nM. The TGI [35] was over 100000 nM, the GI50 [36] was 324 nM and the TGI [36] was 3800 nM. The GI50 [56] was 575 nM, the TGI [56] was over 100000 nM and the GI50 [57] was 586 nM. The TGI [57] was over 100000 nM, the GI50 [37] was 468 nM and the TGI [37] was over 100000 nM. The GI50 [58] was 1960 nM, the TGI [58] was over 100000 nM and the GI50 [38] was 1530 nM. The TGI [38] was over 100000 nM, the GI50 [39] was 1050 nM and the TGI [39] was over 100000 nM. For the same compound, the GI50 [40] was 387 nM.
